Laboratory results as given in US20080146617A1, “Methods of treating inflammatory diseases” (Roche Palo Alto LLC, priority 2006, published 2008).

Tests used:
Assay in all cases: KinomeScan kinase profiling
Assay type in all cases: binding
AMPK-alpha1 = biological target: T1, AMPK-alpha1 (Homo sapiens, UniProt Q13131)
T1 construct: purchased Ambit Biosciences (San Diego, Calif.)

AURKA = biological target: T2, AURKA (Homo sapiens, UniProt O14965)
T2 construct: purchased Ambit Biosciences (San Diego, Calif.)

DAPK2 = biological target: T3, DAPK2 (Homo sapiens, UniProt Q9UIK4)
T3 construct: purchased Ambit Biosciences (San Diego, Calif.)

EPHA2 = biological target: T4, EPHA2 (Homo sapiens, UniProt P29317)
T4 construct: purchased Ambit Biosciences (San Diego, Calif.)

EPHA3 = biological target: T5, EPHA3 (Homo sapiens, UniProt P29320)
T5 construct: purchased Ambit Biosciences (San Diego, Calif.)

EPHB4 = biological target: T6, EPHB4 (Homo sapiens, UniProt P54760)
T6 construct: purchased Ambit Biosciences (San Diego, Calif.)

FGFR2 = biological target: T7, FGFR2 (Homo sapiens, UniProt P21802)
T7 construct: purchased Ambit Biosciences (San Diego, Calif.)

JAK2(Kin.Dom2) = biological target: T8, JAK2(Kin.Dom2) (Homo sapiens, UniProt O60674)
T8 construct: JAK2(Kin.Dom2); purchased Ambit Biosciences (San Diego, Calif.)

JNK2 = biological target: T9, JNK2 (Homo sapiens, UniProt P45984)
T9 construct: purchased Ambit Biosciences (San Diego, Calif.)

KIT = biological target: T10, KIT (Homo sapiens, UniProt P10721)
T10 construct: purchased Ambit Biosciences (San Diego, Calif.)

LIMK1 = biological target: T11, LIMK1 (Homo sapiens, UniProt P53667)
T11 construct: purchased Ambit Biosciences (San Diego, Calif.)

p38-beta = biological target: T12, p38-beta (Homo sapiens, UniProt Q15759)
T12 construct: purchased Ambit Biosciences (San Diego, Calif.)

PCTK1 = biological target: T13, PCTK1 (Homo sapiens, UniProt Q00536)
T13 construct: purchased Ambit Biosciences (San Diego, Calif.)

PHKG1 = biological target: T14, PHKG1 (Homo sapiens, UniProt Q16816)
T14 construct: purchased Ambit Biosciences (San Diego, Calif.)

ABL2 = biological target: T15, ABL2 (Homo sapiens, UniProt P42684)
T15 construct: purchased Ambit Biosciences (San Diego, Calif.)
Source text: (§1) The selectivity of a given CK1δ, CK1ε or CK1δ-CK1ε inhibitor compound can be determined by testing the compound against a panel of known kinases. An example of such a kinase profiling technology is the “KinomeScan” from Ambit Biosciences in which compounds can be screened for their modulatory activities against more than 200 known kinases.

AKT1 = biological target: T16, AKT1 (Homo sapiens, UniProt P31749)
T16 construct: purchased Ambit Biosciences (San Diego, Calif.)
Source text: as §1

BLK = biological target: T17, BLK (Homo sapiens, UniProt P51451)
T17 construct: purchased Ambit Biosciences (San Diego, Calif.)
Source text: as §1

CAMK1 = biological target: T18, CAMK1 (Homo sapiens, UniProt Q14012)
T18 construct: purchased Ambit Biosciences (San Diego, Calif.)
Source text: as §1

CAMK1D = biological target: T19, CAMK1D (Homo sapiens, UniProt Q8IU85)
T19 construct: purchased Ambit Biosciences (San Diego, Calif.)
Source text: as §1

CAMK2B = biological target: T20, CAMK2B (Homo sapiens, UniProt Q13554)
T20 construct: purchased Ambit Biosciences (San Diego, Calif.)
Source text: as §1

CAMKK1 = biological target: T21, CAMKK1 (Homo sapiens, UniProt Q8N5S9)
T21 construct: purchased Ambit Biosciences (San Diego, Calif.)
Source text: as §1

CSK = biological target: T22, CSK (Homo sapiens, UniProt P41240)
T22 construct: purchased Ambit Biosciences (San Diego, Calif.)
Source text: as §1

DAPK3 = biological target: T23, DAPK3 (Homo sapiens, UniProt O43293)
T23 construct: purchased Ambit Biosciences (San Diego, Calif.)
Source text: as §1

EGFR = biological target: T24, EGFR (Homo sapiens, UniProt P00533)
T24 construct: purchased Ambit Biosciences (San Diego, Calif.)
Source text: as §1

EPHA6 = biological target: T25, EPHA6 (Homo sapiens, UniProt Q9UF33)
T25 construct: purchased Ambit Biosciences (San Diego, Calif.)
Source text: as §1

EPHB1 = biological target: T26, EPHB1 (Homo sapiens, UniProt P54762)
T26 construct: purchased Ambit Biosciences (San Diego, Calif.)
Source text: as §1

JAK1(Kin.Dom1) = biological target: T27, JAK1(Kin.Dom1) (Homo sapiens, UniProt P23458)
T27 construct: JAK1(Kin.Dom1); purchased Ambit Biosciences (San Diego, Calif.)
Source text: as §1

MAP4K5 = biological target: T28, MAP4K5 (Homo sapiens, UniProt Q9Y4K4)
T28 construct: purchased Ambit Biosciences (San Diego, Calif.)
Source text: as §1

PAK3 = biological target: T29, PAK3 (Homo sapiens, UniProt O75914)
T29 construct: purchased Ambit Biosciences (San Diego, Calif.)
Source text: as §1

PDPK1 = biological target: T30, PDPK1 (Homo sapiens, UniProt O15530)
T30 construct: purchased Ambit Biosciences (San Diego, Calif.)
Source text: as §1

PLK4 = biological target: T31, PLK4 (Homo sapiens, UniProt O00444)
T31 construct: purchased Ambit Biosciences (San Diego, Calif.)
Source text: as §1

PTK2B = biological target: T32, PTK2B (Homo sapiens, UniProt Q14289)
T32 construct: purchased Ambit Biosciences
Source text: as §1

STK16 = biological target: T33, STK16 (Homo sapiens, UniProt O75716)
T33 construct: purchased Ambit Biosciences
Source text: as §1

TNIK = biological target: T34, TNIK (Homo sapiens, UniProt Q9UKE5)
T34 construct: purchased Ambit Biosciences
Source text: as §1

TRKA = biological target: T35, TRKA (Homo sapiens, UniProt P04629)
T35 construct: purchased Ambit Biosciences
Source text: as §1

PKAC-alpha = biological target: T36, PKAC-alpha (Homo sapiens, UniProt P17612)
T36 construct: purchased Ambit Biosciences (San Diego, Calif.)

RPS6KA2 = biological target: T37, RPS6KA2 (Homo sapiens, UniProt Q15349)
T37 construct: purchased Ambit Biosciences

RPS6KA3 = biological target: T38, RPS6KA3 (Homo sapiens, UniProt P51812)
T38 construct: purchased Ambit Biosciences

STK3 = biological target: T39, STK3 (Homo sapiens, UniProt Q13188)
T39 construct: purchased Ambit Biosciences

Measured: inhibition at 10 µM

T37 sequence (Q15349 whole entry): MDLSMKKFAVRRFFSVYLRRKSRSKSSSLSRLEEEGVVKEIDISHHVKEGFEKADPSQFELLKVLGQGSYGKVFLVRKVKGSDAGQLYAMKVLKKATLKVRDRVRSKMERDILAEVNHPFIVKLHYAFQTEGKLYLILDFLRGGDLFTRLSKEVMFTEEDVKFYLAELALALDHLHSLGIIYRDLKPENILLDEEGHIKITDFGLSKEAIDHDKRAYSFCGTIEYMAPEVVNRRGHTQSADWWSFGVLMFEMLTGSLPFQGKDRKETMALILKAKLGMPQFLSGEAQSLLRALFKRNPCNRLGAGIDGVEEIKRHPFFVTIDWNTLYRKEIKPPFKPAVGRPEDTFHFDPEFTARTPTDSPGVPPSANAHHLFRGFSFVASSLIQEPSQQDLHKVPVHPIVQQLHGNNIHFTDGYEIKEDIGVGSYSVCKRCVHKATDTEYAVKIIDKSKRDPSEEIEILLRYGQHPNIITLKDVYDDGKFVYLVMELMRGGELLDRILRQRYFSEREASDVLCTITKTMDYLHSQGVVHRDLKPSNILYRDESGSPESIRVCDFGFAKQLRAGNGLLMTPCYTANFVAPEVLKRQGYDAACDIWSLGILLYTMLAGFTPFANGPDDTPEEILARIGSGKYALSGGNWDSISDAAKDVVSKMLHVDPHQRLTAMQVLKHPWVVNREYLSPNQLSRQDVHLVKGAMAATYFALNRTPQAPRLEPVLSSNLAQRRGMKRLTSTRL
T29 sequence (O75914 whole entry): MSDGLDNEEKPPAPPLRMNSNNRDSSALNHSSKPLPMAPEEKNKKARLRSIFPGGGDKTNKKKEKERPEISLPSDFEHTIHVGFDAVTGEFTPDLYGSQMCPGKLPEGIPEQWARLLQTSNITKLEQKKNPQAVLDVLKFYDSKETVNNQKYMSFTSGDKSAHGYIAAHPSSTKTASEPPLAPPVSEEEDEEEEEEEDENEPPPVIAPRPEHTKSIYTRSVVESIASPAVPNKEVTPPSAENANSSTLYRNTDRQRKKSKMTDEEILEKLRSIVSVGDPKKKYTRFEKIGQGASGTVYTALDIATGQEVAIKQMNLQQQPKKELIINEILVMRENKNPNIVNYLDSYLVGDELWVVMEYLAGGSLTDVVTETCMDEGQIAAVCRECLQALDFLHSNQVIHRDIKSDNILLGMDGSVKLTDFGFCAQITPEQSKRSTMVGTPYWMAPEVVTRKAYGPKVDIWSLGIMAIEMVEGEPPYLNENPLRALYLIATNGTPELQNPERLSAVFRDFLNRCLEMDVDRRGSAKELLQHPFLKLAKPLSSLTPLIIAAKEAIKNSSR
T20 sequence (Q13554 whole entry): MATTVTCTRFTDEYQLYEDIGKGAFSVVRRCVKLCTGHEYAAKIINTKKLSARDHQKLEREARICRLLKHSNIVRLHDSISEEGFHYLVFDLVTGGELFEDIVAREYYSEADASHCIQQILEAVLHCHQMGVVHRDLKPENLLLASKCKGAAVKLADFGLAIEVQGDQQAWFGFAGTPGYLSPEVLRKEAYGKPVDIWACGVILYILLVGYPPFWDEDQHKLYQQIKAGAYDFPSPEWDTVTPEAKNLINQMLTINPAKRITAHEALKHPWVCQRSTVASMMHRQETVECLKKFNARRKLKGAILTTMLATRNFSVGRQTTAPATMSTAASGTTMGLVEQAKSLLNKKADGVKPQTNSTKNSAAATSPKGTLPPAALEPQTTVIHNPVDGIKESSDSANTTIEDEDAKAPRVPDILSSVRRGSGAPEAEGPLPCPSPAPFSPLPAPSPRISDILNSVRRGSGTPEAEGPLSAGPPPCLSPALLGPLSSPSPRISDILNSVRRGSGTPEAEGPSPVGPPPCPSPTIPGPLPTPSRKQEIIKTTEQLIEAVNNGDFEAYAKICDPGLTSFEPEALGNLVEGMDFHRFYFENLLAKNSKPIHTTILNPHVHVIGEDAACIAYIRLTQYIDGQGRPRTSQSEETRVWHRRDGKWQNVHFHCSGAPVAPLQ
T23 sequence (O43293 whole entry): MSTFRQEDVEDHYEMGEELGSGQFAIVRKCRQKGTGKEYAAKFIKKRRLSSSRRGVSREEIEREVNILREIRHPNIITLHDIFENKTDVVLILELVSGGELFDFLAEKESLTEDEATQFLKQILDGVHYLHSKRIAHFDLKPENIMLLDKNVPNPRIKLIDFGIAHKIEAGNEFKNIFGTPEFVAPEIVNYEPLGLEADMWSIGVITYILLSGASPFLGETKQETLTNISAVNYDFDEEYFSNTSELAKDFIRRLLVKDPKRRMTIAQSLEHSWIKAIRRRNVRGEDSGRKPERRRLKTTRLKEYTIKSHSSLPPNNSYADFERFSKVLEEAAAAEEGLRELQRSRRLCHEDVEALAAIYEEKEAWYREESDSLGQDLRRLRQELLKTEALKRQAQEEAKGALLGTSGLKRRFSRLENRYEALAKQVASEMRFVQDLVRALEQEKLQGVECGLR
T6 sequence (P54760 16-987): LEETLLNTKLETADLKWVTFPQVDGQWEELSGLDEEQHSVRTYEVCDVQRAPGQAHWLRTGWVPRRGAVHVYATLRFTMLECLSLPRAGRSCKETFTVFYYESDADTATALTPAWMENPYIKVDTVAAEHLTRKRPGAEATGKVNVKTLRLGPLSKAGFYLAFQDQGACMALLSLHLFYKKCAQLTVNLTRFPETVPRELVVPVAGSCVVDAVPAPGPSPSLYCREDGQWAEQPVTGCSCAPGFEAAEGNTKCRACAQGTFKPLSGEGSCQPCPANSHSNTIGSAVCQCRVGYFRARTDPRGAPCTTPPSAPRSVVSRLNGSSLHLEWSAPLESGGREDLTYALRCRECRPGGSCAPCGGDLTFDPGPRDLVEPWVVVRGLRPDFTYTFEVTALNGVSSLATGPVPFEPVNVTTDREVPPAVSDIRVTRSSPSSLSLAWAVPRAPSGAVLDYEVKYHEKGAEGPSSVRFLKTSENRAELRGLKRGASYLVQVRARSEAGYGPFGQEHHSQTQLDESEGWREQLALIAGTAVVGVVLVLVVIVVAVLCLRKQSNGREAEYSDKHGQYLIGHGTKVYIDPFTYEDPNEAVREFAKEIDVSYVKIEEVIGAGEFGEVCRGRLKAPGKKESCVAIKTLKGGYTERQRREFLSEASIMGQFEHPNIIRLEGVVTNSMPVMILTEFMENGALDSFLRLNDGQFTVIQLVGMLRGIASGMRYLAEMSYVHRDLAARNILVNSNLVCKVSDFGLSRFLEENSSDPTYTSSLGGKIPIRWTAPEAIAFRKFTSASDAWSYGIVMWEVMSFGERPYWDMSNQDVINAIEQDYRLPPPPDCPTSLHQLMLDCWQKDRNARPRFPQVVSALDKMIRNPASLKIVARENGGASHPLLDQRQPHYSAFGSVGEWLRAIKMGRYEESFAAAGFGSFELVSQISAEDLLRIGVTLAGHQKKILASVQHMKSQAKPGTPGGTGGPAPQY
T31 sequence (O00444 whole entry): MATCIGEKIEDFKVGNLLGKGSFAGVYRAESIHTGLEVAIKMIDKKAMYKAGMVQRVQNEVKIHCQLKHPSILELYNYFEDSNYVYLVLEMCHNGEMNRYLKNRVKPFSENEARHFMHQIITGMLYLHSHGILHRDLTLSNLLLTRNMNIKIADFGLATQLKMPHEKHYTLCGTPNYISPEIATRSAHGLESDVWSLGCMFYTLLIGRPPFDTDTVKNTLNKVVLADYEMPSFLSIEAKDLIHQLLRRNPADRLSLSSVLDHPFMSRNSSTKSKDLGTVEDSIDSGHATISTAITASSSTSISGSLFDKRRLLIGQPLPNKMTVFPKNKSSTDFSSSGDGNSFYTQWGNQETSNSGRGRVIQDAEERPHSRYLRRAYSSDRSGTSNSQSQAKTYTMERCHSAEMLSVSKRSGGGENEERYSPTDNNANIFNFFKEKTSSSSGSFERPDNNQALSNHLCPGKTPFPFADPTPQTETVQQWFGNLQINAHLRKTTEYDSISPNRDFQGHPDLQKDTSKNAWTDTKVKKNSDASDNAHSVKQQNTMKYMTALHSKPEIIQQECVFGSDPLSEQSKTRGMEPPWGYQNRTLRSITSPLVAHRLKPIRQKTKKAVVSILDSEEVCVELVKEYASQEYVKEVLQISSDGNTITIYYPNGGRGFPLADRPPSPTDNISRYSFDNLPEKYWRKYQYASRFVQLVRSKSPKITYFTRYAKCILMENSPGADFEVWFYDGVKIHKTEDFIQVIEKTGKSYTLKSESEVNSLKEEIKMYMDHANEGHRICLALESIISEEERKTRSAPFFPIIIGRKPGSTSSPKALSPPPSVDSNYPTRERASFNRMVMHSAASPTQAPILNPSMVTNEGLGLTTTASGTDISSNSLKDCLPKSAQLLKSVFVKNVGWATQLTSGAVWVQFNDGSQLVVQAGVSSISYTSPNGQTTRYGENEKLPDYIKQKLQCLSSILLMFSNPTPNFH
T8 sequence (O60674 849-1124 limits assumed): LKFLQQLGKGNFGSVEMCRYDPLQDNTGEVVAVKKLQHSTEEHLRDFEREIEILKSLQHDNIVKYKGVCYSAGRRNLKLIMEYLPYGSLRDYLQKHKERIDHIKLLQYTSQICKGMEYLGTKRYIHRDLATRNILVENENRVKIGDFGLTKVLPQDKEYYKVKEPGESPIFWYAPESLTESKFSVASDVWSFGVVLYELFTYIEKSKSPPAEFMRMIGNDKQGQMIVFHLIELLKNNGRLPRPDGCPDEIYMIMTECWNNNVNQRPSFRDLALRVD
T2 sequence (O14965 whole entry): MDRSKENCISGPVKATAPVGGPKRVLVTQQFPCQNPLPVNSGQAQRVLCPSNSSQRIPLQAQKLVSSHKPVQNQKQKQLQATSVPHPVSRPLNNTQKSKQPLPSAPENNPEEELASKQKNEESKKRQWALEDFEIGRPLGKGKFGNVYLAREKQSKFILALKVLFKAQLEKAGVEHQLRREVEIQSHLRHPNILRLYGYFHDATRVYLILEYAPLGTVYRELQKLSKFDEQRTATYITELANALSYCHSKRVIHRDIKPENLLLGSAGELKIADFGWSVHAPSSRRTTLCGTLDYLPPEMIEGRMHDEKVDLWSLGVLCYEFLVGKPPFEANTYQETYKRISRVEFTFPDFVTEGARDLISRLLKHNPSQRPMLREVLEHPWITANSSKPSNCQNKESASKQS

NC(=O)c1ccc(-c2nc(-c3ccc4c(c3)OCCO4)c(-c3ccccn3)[nH]2)cc1 [D4476, 4-[4-(2,3-Dihydro-benzo[1,4]dioxin-6-yl)-5-pyridin-2-yl-1H-imidazol-2-yl]benzamide]
< 50%: all assays above

NC(=O)c1ccc(-c2nc(-c3ccc4c(c3)OCO4)c(-c3ccccn3)[nH]2)cc1 [SB431542, 4-(4-benzo-[1,3]dioxol-5-yl-5-pyridin-2-yl-1H-imidazol-2-yl)benzamide]
< 50%: all assays above
